Experimental data: ChEMBL document CHEMBL1255199, “Endochin optimization: structure-activity and structure-property relationship studies of 3-substituted 2-methyl-4(1H)-quinolones with antimalarial activity” (J Med Chem, 2010)
In brackets after ≈: the same amount, converted by molar mass.

What was measured:
[1] = test system: Plasmodium falciparum; experiment: Antimalarial activity against chloroquine, mefloquine, pyrimethamine and atovaquone-resistant Plasmodium falciparum TM90-C2B infected in human A+ erythrocytes after 72 hrs by SYBR Green I assay; format: functional, organism-based
[2] = test system: Plasmodium falciparum; experiment: Antimalarial activity against chloroquine and pyrimethamine-resistant Plasmodium falciparum W2 infected in human A+ erythrocytes after 72 hrs by SYBR Green I assay; format: functional, organism-based; conditions: W2, 72 h
[3] = Passive transcellular permeability of the compound at pH 4 by PAMPA; format: ADME; conditions: for Papp: read-out: permeability
[4] = Lipophilicity, log D of the compound at pH 7.4; conditions: buffer
[5] = Passive transcellular permeability of the compound at pH 7.4 by PAMPA; format: ADME; conditions: for Papp: read-out: permeability
[6] = test system: J774; experiment: Cytotoxicity against mouse J774 cells; format: cell-based
[7] = in vitro; conditions: mouse, J774 cells
Description: Cytotoxicity index, ratio of EC50 for mice (Mus musculus) J774 cells to EC50 for chloroquine, mefloquine, pyrimethamine and atovaquone-resistant Plasmodium falciparum TM90-C2B

[8] = physchem; conditions: aqueous, pH 7.4
Description: Aqueous solubility of the compound at pH 7.4 by HPLC analysis

SMILES	EC50 [1]	EC50 [2]	Papp [3]	logD [4]	Papp [5]	EC50 [6]	selectivity ratio [7]	solubility [8]	permeability [3]	permeability [5]
Cc1c(-c2ccccc2)c(=O)c2cc(Cl)ccc2n1C	> 8800 nM	> 8800 nM	–	–	–	–	–	–	–	–
COc1c(-c2ccccc2)c(C)nc2ccc(Cl)cc12	> 8800 nM	> 8800 nM	–	–	–	–	–	–	–	–
COc1cc2[nH]c(C)c(CC(C)C)c(=O)c2cc1Cl	63.3 nM	86.4 nM	496 ×10⁻⁶ cm/s	2.99	368 ×10⁻⁶ cm/s	> 35700 nM	–	–	–	–
Cc1nc2ccccc2c(OCc2ccccc2)c1Br	–	–	99.7 ×10⁻⁶ cm/s	2.52	794 ×10⁻⁶ cm/s	–	–	–	–	–
COc1cc2[nH]c(C)c(Br)c(=O)c2cc1Cl	–	–	125 ×10⁻⁶ cm/s	0	152 ×10⁻⁶ cm/s	–	–	–	–	–
COc1ccc2c(=O)cc(C)[nH]c2c1	12500 nM	> 13200 nM	–	1.2	8.91 ×10⁻⁶ cm/s	> 52800 nM	> 4.2	–	–	–
Cc1cc(=O)c2ccccc2[nH]1	> 62800 nM	> 44700 nM	1.56 ×10⁻⁶ cm/s	–	1.54 ×10⁻⁶ cm/s	> 62800 nM	–	–	–	–
Cc1[nH]c2ccccc2c(=O)c1C1CCCCC1	2230 nM	591 nM	260 ×10⁻⁶ cm/s	2.45	230 ×10⁻⁶ cm/s	> 41400 nM	> 18.6	10 µM (≈ 2.41 µg/mL)	–	–
Cc1[nH]c2ccccc2c(=O)c1/C=C/c1ccccc1	> 9080 nM	> 9080 nM	222 ×10⁻⁶ cm/s	4.4	224 ×10⁻⁶ cm/s	> 36300 nM	> 4	–	–	–
COc1ccc2[nH]c(C)c(Br)c(=O)c2c1	1160 nM	3000 nM	–	1.62	16.7 ×10⁻⁶ cm/s	> 37300 nM	> 32	> 20 µM	–	–
Cc1[nH]c2ccc(F)cc2c(=O)c1Br	125 nM	929 nM	16.2 ×10⁻⁶ cm/s	1.61	18.3 ×10⁻⁶ cm/s	> 39100 nM	> 313	–	–	–
CCCCC#Cc1c(C)[nH]c2ccc(OC)cc2c1=O	> 9210 nM	> 9210 nM	–	5.25	–	> 36800 nM	> 4	–	1020.6 ×10⁻⁶ cm/s	2438.2 ×10⁻⁶ cm/s
CCCCC#Cc1c(C)[nH]c2ccccc2c1=O	> 10400 nM	8290 nM	500 ×10⁻⁶ cm/s	5.44	–	8900 nM	–	–	–	2137.05 ×10⁻⁶ cm/s
CCCCC#Cc1c(C)[nH]c2ccc(Cl)cc2c1=O	43100 nM	> 9060 nM	171 ×10⁻⁶ cm/s	2.98	–	> 36300 nM	> 0.84	2 µM (≈ 0.548 µg/mL)	–	–
COc1ccc2[nH]c(C)c(-c3ccccc3)c(=O)c2c1	> 9420 nM	> 9420 nM	–	1.61	126 ×10⁻⁶ cm/s	> 37700 nM	> 4	–	–	–
COc1ccc2c(=O)c(-c3ccccc3)c(C)[nH]c2c1	269 nM	287 nM	–	1.56	9.89 ×10⁻⁶ cm/s	> 37700 nM	> 140	–	–	–
COc1cccc2c(=O)c(-c3ccccc3)c(C)[nH]c12	1660 nM	2060 nM	33.9 ×10⁻⁶ cm/s	1.73	37 ×10⁻⁶ cm/s	> 37700 nM	> 22.6	–	–	–
Cc1[nH]c2cc(Cl)ccc2c(=O)c1-c1ccccc1	1860 nM	216 nM	37.8 ×10⁻⁶ cm/s	2.18	–	> 37100 nM	> 19.9	< 2 µM	–	–
Cc1[nH]c2cc(Cl)c(Cl)cc2c(=O)c1-c1ccccc1	350 nM	569 nM	–	3.05	–	> 32900 nM	> 93.3	< 2 µM	–	–

SMILES	EC50 [1]	EC50 [2]	Papp [3]	logD [4]	Papp [5]	EC50 [6]	selectivity ratio [7]	solubility [8]	permeability [3]	permeability [5]
Cc1[nH]c2c(Cl)c(Cl)ccc2c(=O)c1-c1ccccc1	> 8220 nM	> 8220 nM	189 ×10⁻⁶ cm/s	3.27	197 ×10⁻⁶ cm/s	> 32900 nM	–	–	–	–
CCCCCCC/C=C/c1c(C)[nH]c2ccccc2c1=O	–	12.9 nM	174 ×10⁻⁶ cm/s	4.26	–	–	–	< 2 µM	–	–
C=C(CCCCCCC)c1c(C)[nH]c2ccccc2c1=O	–	39.6 nM	–	2.35	–	–	–	< 2 µM	1755.67 ×10⁻⁶ cm/s	–
CCCCCC/C=C\Cc1c(C)[nH]c2ccccc2c1=O	–	102 nM	–	5.94	–	–	–	< 2 µM	–	–
COc1ccc2c(c1)c(=O)c(Cc1ccccc1)c(C)n2C	8060 nM	> 8520 nM	295 ×10⁻⁶ cm/s	2.73	268 ×10⁻⁶ cm/s	–	–	10 µM (≈ 2.93 µg/mL)	–	–
Cc1c(Cc2ccccc2)c(=O)c2cc(Cl)ccc2n1C	> 8400 nM	> 8400 nM	510 ×10⁻⁶ cm/s	3.21	489 ×10⁻⁶ cm/s	–	–	2 µM (≈ 0.596 µg/mL)	–	–
COc1ccc2c(=O)c(Cc3ccccc3)c(C)n(C)c2c1	7840 nM	> 8520 nM	432 ×10⁻⁶ cm/s	3.24	299 ×10⁻⁶ cm/s	–	–	> 20 µM	–	–
COc1ccc2nc(C)c(Cc3ccccc3)c(OC)c2c1	> 8520 nM	> 8520 nM	294 ×10⁻⁶ cm/s	4.2	–	–	–	2 µM (≈ 0.587 µg/mL)	–	1067.76 ×10⁻⁶ cm/s
COc1c(Cc2ccccc2)c(C)nc2ccc(Cl)cc12	> 8400 nM	> 8400 nM	360 ×10⁻⁶ cm/s	4.93	268 ×10⁻⁶ cm/s	–	–	< 2 µM	–	–
COc1ccc2c(OC)c(Cc3ccccc3)c(C)nc2c1	> 8520 nM	> 8520 nM	325 ×10⁻⁶ cm/s	4.35	–	–	–	2 µM (≈ 0.587 µg/mL)	–	1277.24 ×10⁻⁶ cm/s
CCCCCCCCCc1c(C)[nH]c2cc(OC)c(Cl)cc2c1=O	1.59 nM	6.03 nM	–	4.74	–	> 28700 nM	> 18000	< 2 µM	–	–
COc1cc2[nH]c(C)c(Cc3ccccc3)c(=O)c2cc1Cl	68.6 nM	93.7 nM	575 ×10⁻⁶ cm/s	1.99	566 ×10⁻⁶ cm/s	> 31900 nM	–	–	–	–
CCCCC#Cc1c(C)[nH]c2cc(OC)c(Cl)cc2c1=O	4210 nM	2160 nM	148 ×10⁻⁶ cm/s	2.45	–	15000 nM	3.6	> 20 µM	–	–
CCCCC/C=C/c1c(C)[nH]c2cc(OC)c(Cl)cc2c1=O	10.6 nM	31.5 nM	280 ×10⁻⁶ cm/s	3.57	46.3 ×10⁻⁶ cm/s	> 31200 nM	> 2950	–	–	–
Cc1ccc2[nH]c(C)c(Br)c(=O)c2c1	261 nM	288 nM	26.4 ×10⁻⁶ cm/s	1.07	42.2 ×10⁻⁶ cm/s	19600 nM	74.9	–	–	–
CCCCCCCc1c(C)nc2ccccc2c1O	105 nM	93.2 nM	–	3.39	–	5100 nM	48.3	–	–	–
CCCCCCCCCc1c(C)[nH]c2ccccc2c1=O	39.8 nM	24.1 nM	–	4.33	–	2800 nM	69.9	–	–	–
O=C1C(O)=C([C@H]2CC[C@H](c3ccc(Cl)cc3)CC2)C(=O)c2ccccc21 [ATOVAQUONE]	6230 nM	0.54 nM	–	–	–	–	–	–	–	–
CCN(CC)CCCC(C)Nc1ccnc2cc(Cl)ccc12 (stereo not drawn) [CHLOROQUINE]	48.2 nM	164 nM	–	–	–	–	–	–	–	–
